Experimental data: US20100240748A1, “TETRAHYDRONAPHTHALEN-2-OL DERIVATIVES” (N. V. Organon, priority 2009, published 2010)
pEC50: −log10 of the molar value.

Key:
[1] = biological target: human estrogen receptor β (hERβ) (Homo sapiens, UniProt Q92731); experiment: ERβ transactivation bioassay in recombinant CHO cells (hERβ, rat oxytocin promoter, luciferase reporter); type: cell-based; conditions: for ERβ/ERα ratio: ERβ agonistic selectivity over ERα, transactivation data; for pEC50: transactivation of luciferase in CHO cells co-transfected with hERβ, read-out: ERβ agonistic EC50
human estrogen receptor β (hERβ), sequence (Q92731 whole entry): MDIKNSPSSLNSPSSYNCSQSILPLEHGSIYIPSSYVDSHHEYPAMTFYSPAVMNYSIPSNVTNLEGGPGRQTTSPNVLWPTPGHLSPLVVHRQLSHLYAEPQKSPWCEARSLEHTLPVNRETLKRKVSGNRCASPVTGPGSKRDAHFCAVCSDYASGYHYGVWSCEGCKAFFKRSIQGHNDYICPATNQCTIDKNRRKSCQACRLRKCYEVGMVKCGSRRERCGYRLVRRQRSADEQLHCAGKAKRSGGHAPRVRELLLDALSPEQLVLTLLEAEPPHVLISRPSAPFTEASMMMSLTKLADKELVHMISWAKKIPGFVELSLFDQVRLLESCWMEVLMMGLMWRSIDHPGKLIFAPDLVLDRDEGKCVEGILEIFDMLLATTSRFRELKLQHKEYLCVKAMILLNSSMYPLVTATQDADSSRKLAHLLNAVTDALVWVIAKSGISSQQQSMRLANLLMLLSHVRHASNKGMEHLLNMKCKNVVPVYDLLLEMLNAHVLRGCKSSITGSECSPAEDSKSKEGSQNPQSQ
Experimental: (§1) The estrogenic and antiestrogenic activity of compounds was determined in an in vitro bioassay with recombinant Chinese hamster ovary (CHO) cells stably co-transfected with the human estrogen receptor α (hERα) or β receptor (hERβ), the rat oxytocin promoter (RO) and the luciferase reporter gene (LUC). The estrogenic activity of a test compound to stimulate the transactivation of the enzyme luciferase mediated via the estrogen receptors hERα or hERβ is expressed in nM. The assay was performed as described by De Gooyer et al., Steroids 68 (2003), 21-30.

[2] = system: acinar epithelium of the ventral prostate; experiment: short-term prostate apoptosis and proliferation model in castrated rats; type: in vivo, rat
Experimental: Selected compounds were tested in a short-term prostate apoptosis and proliferation model in castrated rats.
Intact mature male Wistar rats (350-400 g) were castrated and left to recover for 1 week. 7 days after the castration rats received a single subcutaneous injection of testosterone buciclate (TB), a long-acting testosterone ester, in arachis oil (20 mg/kg) with a volume of 1 ml/kg and were subsequently treated once daily orally for 3 days with the test substance at doses between 0 and 1000 μg/kg, dissolved in gelatin/mannitol and dosed with a volume of 1 ml/kg.
At the end of the experiment rats were euthanized, the prostates were removed, weighed and processed for histology.
Apoptosis of the acinar epithelium of the ventral prostate was determined with TUNEL ([…]) staining. Apoptotic cells show nuclear DNA fragmentation and the TUNEL assay end-labels the fragmented DNA by incorporating biotinylated dUTP at the 3′-OH DNA ends using the enzyme Terminal deoxynucleotidyl Transferase (TdT). Positively stained cells are counted per acinus (glandular unit) in the ventral prostate. Proliferation of the acinar epithelium of the ventral prostate was determined by immunohistochemical staining with an antibody directed against Ki67 (clone Mib5). Positively stained cells are counted per acinus (glandular unit) in the ventral prostate. Statistical significance is determined as compared to TB alone by one-way ANOVA.

[3] = metabolic stability in human hepatocytes; type: in vitro ADME; conditions: human, cryopreserved human hepatocytes (suspension); tetrahydronaphthalen-2-ol; 37° C., sampled 0-120 min, LC-MS/MS; read-out: Human hepatocyte T 1/2
Experimental: (§2) A number of compounds 9, 11 and 12 were tested on metabolic stability in human hepatocytes. The hepatic stability was compared to corresponding chroman compounds 25, 26 or 27 (see structures below).
(§3) Test compounds were diluted to 3 μM in incubation medium. Then 40 μl of the 3 μM test compounds was pipetted into a 96 well microtiter plate (flat bottom). Hepatocytes (stored at −140° C.) were thawed in a 37° C. water bath. The cells were resuspended into pre-warmed thawing medium and were centrifuged for 5 minutes at 50 g at room temperature. The supernatant was discarded and the remaining cell pellet was resuspended in warm incubation medium and diluted to 7.5 E5 cells/ml. Then 80 μl of the cell suspension was added to each well of the 96 well microtiter plate containing the test compounds. The resulting mixture was incubated at 37° C. and was sampled at t=0, 5, 30, 60, and 120 min. The samples were analyzed by LC-MS/MS to determine the content of unchanged test compound. Based on the rate of reduction of the content of test compound over time, the half-live (T½) was calculated.

[4] = biological target: T1, human estrogen receptor α (hERα) (Homo sapiens, UniProt P03372); experiment: ERα transactivation bioassay in recombinant CHO cells (hERα, rat oxytocin promoter, luciferase reporter); type: cell-based; conditions: ratio of activities of eutomer and distomer on ERα
T1 sequence (P03372 1-595): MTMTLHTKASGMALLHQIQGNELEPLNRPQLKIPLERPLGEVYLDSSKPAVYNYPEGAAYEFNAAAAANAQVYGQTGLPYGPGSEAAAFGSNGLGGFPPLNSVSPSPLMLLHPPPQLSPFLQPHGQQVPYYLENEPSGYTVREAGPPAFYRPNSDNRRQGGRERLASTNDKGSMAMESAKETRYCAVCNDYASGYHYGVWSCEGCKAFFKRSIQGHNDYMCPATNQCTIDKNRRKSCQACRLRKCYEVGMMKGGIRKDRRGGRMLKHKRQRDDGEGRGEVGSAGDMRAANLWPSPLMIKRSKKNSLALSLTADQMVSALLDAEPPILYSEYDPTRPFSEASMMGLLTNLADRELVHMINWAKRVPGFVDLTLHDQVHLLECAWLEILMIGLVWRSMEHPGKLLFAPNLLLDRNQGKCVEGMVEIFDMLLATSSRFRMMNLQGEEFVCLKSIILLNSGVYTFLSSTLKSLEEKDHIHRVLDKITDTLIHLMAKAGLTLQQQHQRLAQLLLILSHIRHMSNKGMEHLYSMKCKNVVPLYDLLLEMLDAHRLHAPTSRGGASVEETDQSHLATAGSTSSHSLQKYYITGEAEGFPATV
Experimental: as §1

human hepatocytes = experiment: metabolic stability in human hepatocytes; type: in vitro ADME; conditions: tetrahydronaphthalen-2-ol; 37° C., sampled 0-120 min, LC-MS/MS
Experimental: as §2, §3

## CCC1C(c2ccc(O)c(F)c2)Cc2ccc(O)cc2C1Cc1ccccc1F (racemic) [Compound 9q, 7-ethyl-6-(3-fluoro-4-hydroxyphenyl)-8-(2-fluorobenzyl)-5,6,7,8-tetrahydronaphthalen-2-ol]
[1]
  ERβ/ERα ratio: >67
  pEC50: 8.82

## C[C@H]1[C@@H](c2ccc(O)cc2)Cc2ccc(O)cc2[C@H]1Cc1ccccc1F (single isomer, unassigned) [Compound 11a]
[2]; at 3 μg/kg, Ki67 staining, compared to TB-alone treated rats
  epithelial cell proliferation: decrease in epithelial cell proliferation
[2]; castrated Wistar rats with testosterone buciclate, once daily orally for 3 days, TUNEL staining, ventral prostate
  minimal active dose (MAD), increase in epithelial cell apoptosis: 3 µg/kg
[2]; castrated rats, TUNEL staining, compared to TB alone, one-way ANOVA
  epithelial cell apoptosis: statistically significant (p<0.01) increase in epithelial cell apoptosis

## C[C@@H]1[C@H](c2ccc(O)cc2)Cc2ccc(O)cc2[C@@H]1Cc1c(F)cccc1F (single isomer, unassigned) [Compound 12i]
[3]
  half-life at 1 µM: 33.7 min

## CC[C@@H]1[C@H](c2ccc(O)c(F)c2)Cc2ccc(O)cc2[C@@H]1Cc1ccccc1F (single isomer, unassigned) [Compound 12q]
[3]
  half-life at 1 µM: > 120 min

## (6S,7S,8S)-7-ethyl-6-(3- fluoro-4-hydroxyphenyl)- 8-(2-fluorobenzy1)-5,6, 7,8-tetrahydro- naphthalen-2-ol [Compound 11q]
[1]
  ERβ/ERα ratio: >169
  pEC50: 9.23
[1]; ratio of activities of eutomer and distomer on ERβ
  ERβ eudismic ratio: 7
[4]
  ERα eudismic ratio: <0.3
Human hepatocytes
  Human hepatocyte T 1/2: 82.2 min

## C[C@H]1[C@@H](c2ccc(O)cc2)Cc2ccc(O)cc2[C@H]1Cc1c(F)cccc1F (single isomer, unassigned) [Compound 11i]
[3]
  half-life at 1 µM: 29.4 min
